What all share (assay): MIC, GAM agar, anaerobic
Type in all cases: cell-based

One test has as its system Bacteroides fragilis V-6. Particulars: V6, GAM agar, anaerobic, 37° C., 40 hours, inoculum 10^6/ML, read-out: Minimum inhibitory concentration (MIC). How it is done: (§1) Minimum inhibitory concentration (MIC) for gram
(§2) Note: incubated at 37° C. for 40 hours on GAM agar medium (product
(§3) of Nippon Seiyaku) using anaerobic incubator. Inoculated with 10^6

The subject of another test is Bacteroides fragilis V-7. As to conditions: V7, GAM agar, anaerobic, 37° C., 40 hours, inoculum 10^6/ML, read-out: Minimum inhibitory concentration (MIC). How it is done: as §1, §2, §3
For the next test, the system named is Bacteroides fragilis V-8. Particulars: V8, GAM agar, anaerobic, 37° C., 40 hours, inoculum 10^6/ML, read-out: Minimum inhibitory concentration (MIC). How it is done:
as §1, §2, §3

In test [1] the test system is Fusobacterium glutinosum 1006. As to conditions: 37° C., 40 hours, inoculum 10^6/ML, read-out: Minimum inhibitory concentration (MIC). How it is done: as §1, §2, §3

≈ marks a conversion by molar mass, not a printed value. Some results are limits rather than exact numbers.

With `O=C(Cn1cnnn1)N[C@@H]1C(=O)N2C(C(=O)O)=C(CSc3nncs3)CS[C@H]12` [Ceftezole, reference compound], the MIC in the test with Bacteroides fragilis V-6 was 100 µg/mL (≈ 227 µM); with Bacteroides fragilis V-7 it was 25 µg/mL (≈ 56.8 µM); with Bacteroides fragilis V-8, > 100 µg/mL; in test [1] it was 6.25 µg/mL (≈ 14.2 µM).

For the origin of these results see patent publication US4214091A, “Antibiotic No. 2-200 and process for producing thereof” (Chugai Seiyaku Kabushiki Kaisha, priority 1977, dated 1980).
